US20080226565A1, “Anticariogenic Proteins & Peptides & Saccharides” (priority 2004, published 2008)

What was measured:
Parameters in all cases: species or system human
[1] = Determination of the PF-value: Knoop micro hardness of tooth samples coated with product, then saliva and acetic acid (in-vitro)
Text: The capacity to protect teeth against caries can be measured with a technique well known in the art (U.S. Pat. No. 5,279,814). Demineralization with acid, decreases the hardness of the tooth surface. The hardness can be quantified indirectly by measuring the depth of penetration of a needle in the surface (measurement of micro hardness). With this procedure, so called “Knoop” method, the needle is penetrating the surface under the pressure of constant weight and leaves a mark on the surface that allows the calculation of the depth of penetration. The more the tooth is suffering from demineralization, the softer its surface will get and the larger the depth of penetration will be (Knoop F., Peters C. G., Emerson W. B., A Sensitive Pyramidal Diamond Tool for Identation Measurments, J. Res. Natn. Bur. Stand. 23, 39-61 (1939).
The procedure includes the determination of the hardness of a human tooth sample with the Knoop method. Subsequently, the tooth is treated with an experimental protecting product outside the oral cavity.
It is cleaned softly with a paper towel until the coating is invisible.
Subsequently the tooth sample is submerged in a batch of human saliva in order to simulate the conditions in the oral cavity. After removal from the saliva batch (after 30 min.) it is treated with acid over a constant time period of 30 min. at 37° C. The acid is washed away, the tooth is dried on air and the hardness is measured again. The change in hardness (delta P in μm) is obtained by comparing with the hardness of the tooth before treatment. This experiment is repeated on other tooth samples. The effect of acid on unprotected teeth is obtained by carrying out the same procedure but without the use of an experimental protecting product (delta Pa). The protecting capacity (“PF” protection factor) of an experimental protecting compound can be defined as: […]
The ability of a product to protect teeth (PF-value) is determined with the Knoop method. A tooth sample, size 3×3×3 mm is cut from a human tooth and embedded into polymerizing resin in such a way that the surface of the tooth sample appears on the surface of the (resin) cube after the resin has become solid. The surface of the tooth is mechanically polished with rotating silicon carbide abrasive paper (Struers P1200-P2400-P4000) and the micro hardness of the enamel is determined with a Knoop diamant needle (Leitz-Wetzlar;
microdurometer “Durimet”; weight 50 gr; penetration-time: 30 seconds (Collys et al., J. Dent. Res. 1990; 69: 458-462)).
The penetration leaves a mark on the tooth surface, which is related to the depth of penetration (μm) and which can be analyzed under the microscope. […] The determination of the depth of penetration is repeated six times on each of the tooth samples and the average value is calculated. In order to determine the effect of acid on the hardness of the surface, use is made of an acetic acid buffer from Merck (pH 5; 0.1N). One drop of acid is positioned on the enamel for a period of 30 minutes at 37° C. The sample is cleaned with demineralized water and dried. The hardness is measured again according to the method of Knoop. This procedure is repeated 4 times, which means that the sample has been subjected to acid for a total period of two hours.
A graph (Y: penetration depth μm; X: 5 treatment stages) can be made on the basis of 5 average values (each of them based on six measurement), one obtained before treatment with acid, and the other 4 obtained after each of the 4 treatment-stages with acid. A logaritmic regressionline is calculated.

[2] = In-vivo: tooth samples treated with peptide, 12 hours in the oral cavity, then acetic acid, Knoop hardness
Experimental: In another experiment, 126 sterilized tooth samples where treated with a variety of peptides, fixed to the device and positioned after the lower jaw in the oral cavity of 5 volunteers. The device remained in the oral cavity for a period of 12 hours after which the teeth where removed, cleaned and subjected to a drop of acetic acid (0.1N, 30 min., 37° C). Subsequently the acid was removed, the teeth where cleaned and the hardness was measured (Knoop method). The depth of penetration increased 8.82 μm, 5.40 μm, 5.32 μm and 3.77 μm respectively for teeth treated as blanco with 4.2% casein phosphopeptide e-polylysine copolymer, 7.5% phosvitin and with 4.2% bisphosphonylated e-polylysine. The p-values are respectively 0.000, 0.000 and 0.004 for casein phosphopeptide e-polylysine copolymer, bisphosphonylated e-polylysine and phosvitin.
(§1) Tooth samples have been cut in horizontal slices (thickness: 0.3 to 1 mm) with a Leitz 1600 tooth cutter with horizontal cutting blade; the slices are cut manually (with a bore) into small tooth samples that contain a small part of the original tooth surface. The tooth sample is positioned in a small plastic tube, that has been cut from a long plastic tube with 6 mm external diameter. The length of the tube is 3 to 6 mm. The inner part of the tube is filled with a polymer that hardens under light (Photoclearfil Bright; Kuraray). The tooth sample is positioned in the soft polymer inside the tube, in such a way that the original tooth surface is just surfacing above the tube. Finally the polymer is hardened with a light source. The tooth surface is polished with Struers silicon carbid paper (800-4000) and the hardness is measured 5 times on each of the samples under the Letiz Wetzlar microscope (weight on needle: 50 p). Tooth samples with a maximum average depth of penetration of 43 μm are retained for use in the oral cavity.
The tooth-samples are fixed to a device that has been described in the chapter “Description of the invention ( chapter: In-vivo experiments)” and the device is positioned in the oral cavity after the lower jaw.
A drop from a solution containing either, e-polylysine, CPP, bisphoshphonylated e-polylysine, casein phosphopeptide epsilon-polylysine copolymer or partially hydrolysed phosvitin has been positioned at the surface of tooth samples for a period of 30 minutes at 37 C.; the drop was removed and the procedure was repeated once more. All solutions contained also 3.1% CaCl2.2H2O and 1.7% KH2PO4 (except for the one containing e-polylysine).
The tooth surface was cleaned with a soft paper towel until it was visibly clean. Four such tooth samples where fixed to the device and located in the oral cavity behind the lower jaw. They resided in the oral cavity for a period of 12 hours (only to be removed during eating). Subsequently, they where removed, cleaned and the tooth surface was treated with a drop of acetic acid (0.1N, 30 min., 37° C.); the acid was removed, the tooth was washed with deionized water and the hardness was evaluated.
A: type of peptide ingredient in the solution (% on a w/w basis versus water). (*): the teeth where submerged (30 min.) in a saliva batch and dried afterwards on air, before they where treated with a solution that contained bisphosphonylated e-polylysine. B: Average initial hardness of the tooth surface; μm (st. dev.) C: Average hardness after treatment, after residing in the oral cavity and treatment with acid D: The average change in hardness (C−B) E: p-value (against blanco) of the Mann-Whitney statistical test F: the number of tooth samples that where treated with a specific formulation; hardness on each of the tooth samples was measured five times and an average value was calculated; most often 4 tooth samples per person; 5 volunteers participated to the experiment; the 132 tooth samples where randomized into groups (of 4 teeth) with the same average hardness value.

[3] = In-vivo: radiated tooth samples treated with protector, 5 days in the oral cavity, Knoop hardness; settings: for delta: change of hardness (increase of depth of penetration): radiation + 5 days in oral cavity, 0.1% fluoride or 4% bisphosphonate e-polylysine with CaCl2 and KH2PO4
Text: A device is constructed that can contain up to 6 experimental tooth samples for positioning in the oral cavity. […] The construction of the experimental tooths samples is outlined in chapter C.2.“Results; in-vivo experiments”. In the oral cavity, the tooth samples are positioned in the device in such a way that the enamel surfaces are subjected to physical contact with the tongue and are submerged in saliva. […] In experiments where the device is residing a long time period in the oral cavity (5 days and more), a metal network is positioned just above the surface of the experimental teeth, in order to provide support for the bacteria and stimulate it's growth path. It is also possible to measure the residual protection competence by removing the tooth samples from the oral cavity at the end of the selected residence time and treating them with acid under laboratory conditions.
The device was positioned after the lower jaw in the oral cavity for a period of five days. After removal from the oral cavity, the samples where cleaned and the hardness was measured.
as §1
Tooth samples have been subjected to a radiation dose that is equal to the amount that is given to patients with oral cancer (20 Gray) and have been sterilized. […] A drop of the solution was positioned on the tooth surface and allowed to reside for a period of 30 minutes at 37 C.; the procedure was repeated after removal of the drop with pressured air. Finally the drop was removed, the tooth was dried on air and fixed to the device. In total six tooth samples have been fixed to the device and positioned in the oral cavity after the lower jaw. It remained in the oral cavity for a period of 5 days (day and night). After completion of the required residence time, the device was removed from the oral cavity and the experimental teeth where separated from the device and washed. The hardness was measured according to the Knoop method, six times on each of the tooth samples.
B: the stage at which the hardness of the tooth surface has been measured with the Knoop method. (before the treatment; after radiation and before addition of protector formulation to the surface; after addition of protector to the surface of the tooth and after residing five days in the oral cavity).
B: the stage at which the hardness of the tooth surface has been measured with the Knoop method.

[4] = In-vivo: residual protection, radiated samples after 5 days in oral cavity treated with acetic acid
Text: N: number of tooth samples A: hardness(μm) after radiation and 5 days residence in the oral cavity B: hardness after radiation and 5 days in the oral cavity and treatment with acetic acid

[5] = gel: 4.2% hydroxyethylcellulose, 0.3% NaF, pH 8.8
[6] = 4.2% w/w solution, 12 hours oral cavity, acetic acid 0.1N 30 min

NC(CO)(CO)CO [Product V, Tris(hydroxymethyl)aminoethane, reference compound]
PF factor ([1]; 3.4% product/water w/w): 35

Natural phosvitin (Phos) [Product 3, reference compound]
D: average change in hardness (C−B) ([2]; 7.5% w/w solution): 5.32 μm

Partially hydrolyzed phosvitin, (Phos-h) [Product 5]
more protection competence in comparison to natural phosvitin ([1]; versus natural phosvitin): 25%

Polymerized (CPP) = (CPP)n [Product 2]
PF factor ([1]; 7.2% product/water w/w): 58

[F-].[Na+] [Product IV, sodium fluoride, reference compound]
Mean hardness (depth of penetration) ([3]; after protector and 5 days oral cavity, 0.1% NaF or 4% bisphosphonate e-polylysine with CaCl2 and KH2PO4): 42.77 μm
Mean hardness (depth of penetration) ([3]; after radiation, before addition of protector (baseline of group)): 40.97 μm
delta: change of hardness ([3]; after radiation, before addition of the formulation): −0.13 μm
delta: change of hardness (increase of depth of penetration) [3]: 1.67 μm
delta: change of hardness (increase of depth of penetration) ([3]; listed as NaF): 1.8 μm
Mean hardness (depth of penetration) ([3]; start, before treatment (baseline of group)): 41.10 μm
PF factor ([1]; 0.1% product/water w/w): 61
PF ([1]; gel with 0.3% sodium fluoride only): 68%
PF [1, 5]: 68.1
delta P [1, 5]: 18.8 μm
C: B−A (increase of depth of penetration by acid) ([4]; acetic acid 0.1N, 30 min, 37° C. after 5 days in oral cavity): 6.5 μm
B: hardness after radiation and 5 days in the oral cavity and treatment with acetic acid ([4]; acetic acid 0.1N, pH 5, 30 min, 37° C.): 48.4 μm
A: hardness after radiation and 5 days residence in the oral cavity ([4]; samples later treated with acid): 41.9 μm

Casein phosphopeptide (CPP) [Product 1, reference compound]
C: Average hardness after treatment, after residing in the oral cavity and treatment with acid [2, 6]: 47.60 (2.53) μm
D: average change in hardness (C−B) [2, 6]: 6.78 μm
B: Average initial hardness of the tooth surface (st. dev.) ([2]; group for 4.2% solution, before treatment): 40.82 (0.73) μm
